# Measured values as given in patent US4845292A, “Hydroxy containing amines as phospholipase A2 inhibitors” (American Home Products Corporation, priority 1988, dated 1989).
# Structures can show the parent of a compound that is named as a salt.
# Tests used:
# human platelet PLA2 = target: T1, human platelet PLA2 (Homo sapiens, UniProt P14555); test: Inhibition of cell free human platelet PLA2 (hydrolysis of [3H]-AA labelled E. coli phospholipids); format: biochemical; conditions: Table 1; compounds of the invention; human platelet PLA2, pH 7.4, 37° C., 30 minutes
# T1 sequence (P14555 21-144): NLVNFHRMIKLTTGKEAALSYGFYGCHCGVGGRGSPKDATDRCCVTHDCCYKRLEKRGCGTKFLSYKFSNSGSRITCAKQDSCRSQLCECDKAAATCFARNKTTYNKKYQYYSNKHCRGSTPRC
# Procedure: The ability of the compounds of the invention to inhibit the activity of cell free human platelet PLA2 enzyme is measured in the following in vitro assay.
# (§1) The assay is carried out as follows:
# E. coli, cultured to exponential growth, are sedimented for 15 minutes at 10,000 g and resuspended in sterile isotonic saline (1-3 ml). 10-25 μCi uniformly labeled [^3 H]-arachidonic acid (AA) is added to a sterile flask, evaporated by N2 and resolubilized with 0.3 ml 20% fatty acid-free bovine serum albumen (BSA). 75-100 ml of nutrient broth and 1 ml E. coli are then added to each flask and incubated for 2-3 hours at 37° C. [^3 H]-AA labelled E. coli are then sedimented, suspended in saline and added to fresh nutrient broth and incubated for 1.5 hours at 37° C. to complete [^3 H]-AA incorporation into the phospholipids. After overnight refrigeration of cultures, E. coli are again sedimented, suspended in saline and autoclaved for 15 minutes at 120° C. E. coli cultures are washed twice with saline (first wash contains 1% BSA) and resuspended in saline. Non-labelled E. coli cultures are also prepared in the same manner. Cell number is determined by measuring the optical density at 550 nm ([…]=1 O.D.). The amount of radioactivity associated with cells is determined by counting a defined volume of cell suspension. The specific activity is subsequently adjusted by adding non-labelled E. coli to yield 10,000 cpm/10 […] of E. coli/25 ml.
# Platelet PLA2 Preparation
# Expired human platelets from the blood bank are centrifuged for 15 minutes at 200 g to obtain a platelet rich fraction and to remove the red blood cells. Platelets are sedimented for 15 minutes at 2500 g and the plasma is removed before adding cold 0.18N H2 SO4 (4ml/unit). Platelets are homogenized, incubated for 1 hour at 4° C., homogenized again and centrifuged for 15 minutes at 10,000 g. The PLA2 enriched supernatant fluid is removed and the amount of protein is determined by the Lowry method. The preparation is divided into various portions and stored at -20° C.
# The assay measures the hydrolysis of E. coli membrane phospholipids via the release of free [^3 H]-AA from the C-2 position of phospholipids by human platelet PLA2. To ice cold 15×100 mm test tubes, the following additions are made; 2.5×10^8 E. coli (equivalent to 5 nmol phospholipid), 5 mM Ca^++, 100 mM Tris buffer (pH=7.4), 100 μg platelet extract (or an amount to produce 20-30% hydrolysis), drug or vehicle. Incubations are carried out at 37° C. in a shaking water bath for 30 minutes. The reaction is terminated by the addition of 2 volumes of tetrahydrofuran (THF) and the mixture is vortexed. Hydrolyzed [^3 H]-AA is separated from unhydrolyzed phospholipid by solid phase extraction using Bond elute NH2 columns (Analytichem Internat.). Columns are conditioned with 0.5 ml THF followed by 0.5 ml THF:H2 O (2.0:0.1 ml/v/v). Samples are loaded onto columns and hydrolyzed [^ 3 H]-AA is eluted with 1 ml THF:glacial acetic acid (98.0:2.0 ml v/v). The eluant is transferred to vials, 10 ml Optifluor is added and the radioactivity is determined by liquid scintillation counting.
# Treatments are corrected for non-enzymatic hydrolysis by subtracting the dpms in treatments containing no enzyme Mean [^3 H]-AA dpm is determined and a percent inhibition relative to vehicle treated samples is calculated.
# The percent hydrolysis is calculated by the following equation: [formula]
# [1] = test system: rat carrageenan paw edema; test: Rat carrageenan paw edema; format: in vivo, rat (Sprague-Dawley); conditions: for % Inhibition at 50 mg/kg (peroral): Table 5, 1 hour prior to carrageenan, edema at 3 hours; for ED50: Rattus norvegicus, po, 3 h, read-out: Oral ED50 (95% C.L.)
# Procedure: The compounds in the scope of the invention are further tested in the rat carrageenan paw edema to determine their ability to inhibit the acute inflammatory response. This assay is carried out as follows: […] male Sprague-Dawley rats, in groups of 6 animals are injected subcutaneously in the right paw with 0.1 ml of 1% carrageenan at zero time. Mercury plethysmographic readings (ml) of the paw are made at zero times and 3 hours later. Test compounds are suspended or dissolved in 0.5% methylcellulose and given perorally 1 hour prior to carrageenan administration. The increase in paw volume (edema in ml.) produced by the carrageenan is measured. […] Unpaired Student's t-test is used to determine statistical significance.
# [2] = test system: synthesis of LTB4 by rat glycogen-elicited polymorphonuclear leukocytes (PMN); test: Inhibition of LTB4 synthesis by rat glycogen-elicited polymorphonuclear leukocytes in the presence of exogenous substrate; format: cell-based; conditions: Leukocyte, A23187 stimulated; for inhibition at 10 µM: Table 2, at 10 μM
# Text: This is especially true with respect to 5,12-diHETE, which is also denoted as LTB4 [see Ford-Hitchinson, J. Roy. Soc. Med., 74, 831 (1981)]. Compounds which inhibit the PLA2 -mediated release of arachidonic acid thereby effectively prevent the oxidation of arachidonic acid to the various leukotriene products via the lipoxygenase cascade. Accordingly, the specificity of action of PLA2 inhibitors can be determined by the activity of test compounds in this assay, which measures the ability of compounds to inhibit the synthesis of LTB4 by rat glycogen-elicited polymorphonuclear leukocytes (PMN) in the presence of exogenous substrate.
# as §1
# (§2) Rat polymorphonuclear leukocytes (PMNs) are obtained from female Wistar rats (150.200 g) which receive an injection of 6% glycogen (10 ml i.p.). Rats are sacrificed 18-24 hours post injection by CO2 asphyxiation and the elicited cells are harvested by peritoneal lavage using physiological saline (0.9% NaCl). The exudate is centrifuged at 400×g for 10 minutes. The supernatant fluid is discarded and the cell pellet is resuspended to a concentration of 2.0×10^7 cells/ml in HBSS containing Ca^++ and Mg^++ and 10 μM L-cysteine.
# (§3) To 1 ml aliquots of cell suspension, test drugs or vehicle are added, then preincubated at 37° C. for 10 minutes. A23187 (1 μM), [^3 H]-AA (3.0 μCi/ml) and unlabeled AA (1 μM) are then added and the samples are further incubated for 10 minutes. The reaction is terminated by centrifugation and pelleting cells. Supernatants are then analyzed by HPLC analysis on a 15 cm×4.6 mm ID Supelcosil LC-18 (Supelco)(3M) column, using a two solvent system at a flow rate of 1.4 ml total flow as follows:
# Gradient: (system is equillibrated with Solvent A)
# Percent solvent changes are accomplished in a linear fashion.
# (§4) Injections: 150 μl of each supernatant is injected directly onto column and ^3 H arachidonic acid metabolites are monitored using an on-line radioactivity detector (Ramona, IN/US, Fairfield, NJ).
# Standards: 10^4 -2.0×10^4 dpm of eicosanoids of interest are injected in 90 μl EtOH cocktail.
# Co-chromatography with standard [^3 H] leukotriene B4 (LTB4) in medium of stimulated PMN exposed to drug is compared to that found in medium of stimulated cells exposed to no drug, generating percent inhibition.
# (§5) Results are expressed as percent inhibition at a given compound dose.
# [3] = test system: synthesis of TxB2 by rat glycogen-elicited polymorphonuclear leukocytes; test: Inhibition of synthesis of the cyclooxygenase product TxB2 (procedure of Example 7); format: cell-based; conditions: Leukocyte, rat PMN, A23187 stimulated; for inhibition at 10 µM: Table 3, at 10 μM
# Procedure: as §2, §3, §4, §5
# In this assay, the procedure of Example 7 is carried out as described. However, in order to determine cyclooxygenase activity, the samples are co-chromatographed with authentic reference [^3 H]-TxB2.
# The results are calculated as in Example 7 and presented below: […]
Compound,IC50 (human platelet PLA2),% Inhibition at 50 mg/kg (peroral) [1],inhibition at 10 µM [2],inhibition at 10 µM [3],"inhibition at 5 µM ([2]; Table 2, at 5 μM)","inhibition at 5 µM ([3]; Table 3, at 5 μM)",ED50 [1]
"CCOC(CNCCCCCCCCCCCOc1ccccc1)OCC.Cl [Example 4, N-(2,2-diethoxyethyl)-11-phenoxyundecanamine, hydrochloride]",33 µM,34%,–,–,–,–,–
"CCCCC(CO)NCCCCCCc1ccccc1.Cl (centres unmarked) [Example 2c, 2-[(6-Phenylhexyl)amino]-1-hexanol, hydrochloride]",> 100 µM,34%,16%,24%,–,–,–
"COC(=O)C1CCCN1CCCCCCCCCCCOc1ccccc1 (racemic) [Example 3b, 1-(11-Phenoxyundecyl)-DL-proline methyl ester, hydrochloride]",63 µM,–,–,–,–,–,–
"OC[C@H](Cc1ccc(O)cc1)NCCCCCCCCCCc1ccccc1 [Example 5, (S)-4-hydroxy-α-[(10-phenyldecyl)amino]benzenepropanol, hydrochloride]",48 µM,–,–,–,–,–,–
"CCCC[C@@H](CO)NCCCCCCCCc1ccccc1.Cl [Example 2b, (S)-2[(8-Phenyloctyl)amino]-1-hexanol, hydrochloride]",45 µM,25%,–,–,52%,0%,–
"CC(=O)Oc1ccccc1C(=O)O [Aspirin, reference compound]",–,–,–,–,–,–,145 mg/kg
"COc1ccc2c(c1)c(CC(=O)O)c(C)n2C(=O)c1ccc(Cl)cc1 [Indomethacin, reference compound]",–,–,–,–,–,–,3.7 mg/kg
"CCCCCCCCCCCCCCCCCCNC(CO)CCCC.Cl (centres unmarked) [Example 1, 2-(Octadecylamino)-1-hexanol, hydrochloride]",12 µM,26%,24%,26%,–,–,–
"Cl.OC[C@@H]1CCCN1CCCCCCCCCCCOc1ccccc1 [Example 3a, (S)-1-(11-phenoxyundecyl)-2-pyrrolidinemethanol, hydrochloride]",17 µM,26%,0%,37%,–,–,–
"CCCCC(CO)NCCCCCCCCCCc1ccccc1.Cl (centres unmarked) [Example 2a, 2-[(10-Phenyldecyl)amino]-1-hexanol, hydrochloride]",19 µM,39%,89%,73%,–,–,–
